Key:
[1] = Half-life was determined; assay type: ADME; conditions: human
Renin [2] = biological target: T1, Renin (Homo sapiens, UniProt P00797); assay: In vitro inhibition of purified human kidney renin
T1 sequence (P00797 whole entry): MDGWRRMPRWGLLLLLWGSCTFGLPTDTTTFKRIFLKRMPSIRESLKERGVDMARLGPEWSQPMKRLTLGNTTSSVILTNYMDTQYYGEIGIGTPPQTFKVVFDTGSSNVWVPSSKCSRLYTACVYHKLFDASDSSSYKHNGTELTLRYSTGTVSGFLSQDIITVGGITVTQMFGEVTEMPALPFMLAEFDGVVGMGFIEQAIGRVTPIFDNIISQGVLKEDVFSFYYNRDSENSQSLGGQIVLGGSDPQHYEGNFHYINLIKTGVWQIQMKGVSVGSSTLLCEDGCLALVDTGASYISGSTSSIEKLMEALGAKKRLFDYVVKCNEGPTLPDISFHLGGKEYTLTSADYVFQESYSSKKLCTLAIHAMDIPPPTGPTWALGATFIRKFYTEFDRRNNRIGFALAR

Renin [3] = biological target: T1, Renin; assay: In vitro inhibition of renin in human plasma; assay type: cell-free
Cathepsin D = Cathepsin D (Homo sapiens, UniProt P07339); assay: Selectivity against human cathepsin D
Cathepsin E = biological target: T2, Cathepsin E (Homo sapiens, UniProt P14091); assay: Selectivity against human cathepsin E
T2 sequence (P14091 whole entry): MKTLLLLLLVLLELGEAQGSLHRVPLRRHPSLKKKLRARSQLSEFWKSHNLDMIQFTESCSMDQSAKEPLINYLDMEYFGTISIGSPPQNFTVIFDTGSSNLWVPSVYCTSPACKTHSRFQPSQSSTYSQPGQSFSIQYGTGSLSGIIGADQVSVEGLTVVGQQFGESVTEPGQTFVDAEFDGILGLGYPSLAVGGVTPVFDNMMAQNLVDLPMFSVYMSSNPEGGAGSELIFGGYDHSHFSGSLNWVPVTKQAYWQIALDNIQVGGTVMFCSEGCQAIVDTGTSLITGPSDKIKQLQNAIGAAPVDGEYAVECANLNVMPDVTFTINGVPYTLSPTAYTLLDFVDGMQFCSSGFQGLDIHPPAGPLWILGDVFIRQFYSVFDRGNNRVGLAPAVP

Gastricsin = biological target: T3, Gastricsin (Homo sapiens, UniProt P20142); assay: Selectivity against human gastricsin
T3 sequence (P20142 whole entry): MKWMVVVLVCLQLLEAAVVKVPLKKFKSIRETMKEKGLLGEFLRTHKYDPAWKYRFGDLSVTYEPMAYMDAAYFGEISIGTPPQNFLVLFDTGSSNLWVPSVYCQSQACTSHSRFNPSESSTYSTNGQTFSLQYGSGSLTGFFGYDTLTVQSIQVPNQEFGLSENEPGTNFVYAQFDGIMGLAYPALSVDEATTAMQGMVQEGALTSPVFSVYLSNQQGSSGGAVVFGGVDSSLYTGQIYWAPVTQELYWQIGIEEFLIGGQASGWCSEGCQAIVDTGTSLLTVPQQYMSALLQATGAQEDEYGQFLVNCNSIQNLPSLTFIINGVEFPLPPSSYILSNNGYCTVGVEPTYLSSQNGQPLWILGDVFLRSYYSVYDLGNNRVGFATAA

Pepsin A = Pepsin A (Homo sapiens, UniProt P0DJD9); assay: Selectivity against human pepsin
Pepsin A, sequence (P0DJD9 whole entry): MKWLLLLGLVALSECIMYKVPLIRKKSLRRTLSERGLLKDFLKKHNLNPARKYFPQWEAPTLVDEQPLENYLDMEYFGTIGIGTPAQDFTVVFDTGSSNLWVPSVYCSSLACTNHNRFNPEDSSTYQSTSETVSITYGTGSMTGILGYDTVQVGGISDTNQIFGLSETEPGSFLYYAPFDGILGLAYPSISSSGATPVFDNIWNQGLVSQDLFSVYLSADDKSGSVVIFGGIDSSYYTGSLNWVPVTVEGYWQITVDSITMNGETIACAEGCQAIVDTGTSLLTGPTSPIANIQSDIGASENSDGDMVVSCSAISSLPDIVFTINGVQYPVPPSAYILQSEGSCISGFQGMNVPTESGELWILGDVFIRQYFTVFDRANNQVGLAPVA

Cathepsin D, sequence (P07339 65-162 limits assumed): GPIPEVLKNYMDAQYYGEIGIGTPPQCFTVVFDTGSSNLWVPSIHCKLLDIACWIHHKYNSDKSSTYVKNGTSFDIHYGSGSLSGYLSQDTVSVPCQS
Cathepsin D, sequence (P07339 169-412 limits assumed): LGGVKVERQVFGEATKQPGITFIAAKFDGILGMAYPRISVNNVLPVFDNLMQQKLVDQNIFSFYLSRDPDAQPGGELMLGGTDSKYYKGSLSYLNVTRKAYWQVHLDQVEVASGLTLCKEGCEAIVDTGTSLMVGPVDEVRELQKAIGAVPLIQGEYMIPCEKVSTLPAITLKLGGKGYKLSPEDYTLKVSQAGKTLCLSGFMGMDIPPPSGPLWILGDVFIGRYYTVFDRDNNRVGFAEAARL

half-life [1] | IC50 (Renin [2]) | IC50 (Renin [3]) | IC50 (Cathepsin D) | IC50 (Cathepsin E) | IC50 (Gastricsin) | IC50 (Pepsin A) | Structure (SMILES)
2.85 h | 0.17 nM | 0.43 nM | – | – | – | – | CC(C)(C)S(=O)(=O)C[C@@H](Cc1ccccc1)C(=O)N[C@@H](Cc1c[nH]cn1)C(=O)N[C@@H](CC1CCCCC1)[C@@H](O)[C@@H](O)CCc1ccccn1
0.367 h | 1.1 nM | 1.1 nM | – | – | – | – | O=C(N[C@@H](Cc1cnc[nH]1)C(=O)N[C@@H](CC1CCCCC1)[C@@H](O)[C@@H](O)CCc1ccccn1)[C@@H](CC(=O)N1CCOCC1)Cc1ccccc1
~5 h | 0.7 nM | 0.54 nM | – | – | – | – | NC1CCN(S(=O)(=O)C[C@@H](Cc2ccccc2)C(=O)N[C@@H](Cc2cnc[nH]2)C(=O)N[C@@H](CC2CCCCC2)[C@@H](O)[C@@H](O)CCc2ccccn2)CC1
– | 0.69 nM | 0.75 nM | – | – | – | – | CCOC(=O)CCCCC(=O)N[C@@H](Cc1ccccc1)C(=O)N[C@@H](Cc1c[nH]cn1)C(=O)N[C@@H](CC1CCCCC1)[C@@H](O)[C@@H](O)CCc1ccccn1
– | 0.26 nM | 0.25 nM | – | – | – | – | CSC[C@H](NC(=O)[C@@H](CC(=O)N1CCC(N)CC1)Cc1ccccc1)C(=O)N[C@@H](CC1CCCCC1)[C@@H](O)[C@@H](O)CCc1ccccn1
< 0.05 h | 0.5 nM | 0.47 nM | – | – | – | – | N[C@H]1CC[C@@H](C(=O)N[C@@H](Cc2ccccc2)C(=O)N[C@@H](Cc2cnc[nH]2)C(=O)N[C@@H](CC2CCCCC2)[C@@H](O)[C@@H](O)CCc2ccccn2)CC1
~1.5 h | 4.2 nM | 5.3 nM | – | – | – | – | COc1ccc(C[C@H](NC(=O)[C@H]2CC[C@@H](N)CC2)C(=O)N[C@@H](Cc2cnc[nH]2)C(=O)N[C@@H](CC2CCCCC2)[C@@H](O)[C@@H](O)CCc2ccccn2)cc1
– | 0.31 nM | 0.31 nM | – | – | – | – | N[C@H]1CC[C@@H](S(=O)(=O)C[C@@H](Cc2ccccc2)C(=O)N[C@@H](Cc2cnc[nH]2)C(=O)N[C@@H](CC2CCCCC2)[C@@H](O)[C@@H](O)CCc2ccccn2)CC1
– | 0.53 nM | 0.37 nM | – | – | – | – | NC1CCN(C(=O)O[C@@H](Cc2ccccc2)C(=O)N[C@@H](Cc2cnc[nH]2)C(=O)N[C@@H](CC2CCCCC2)[C@@H](O)[C@@H](O)CCc2ccccn2)CC1
1.52 h | – | – | > 100000 nM | > 100000 nM | > 100000 nM | > 100000 nM | NC1CCN(C(=O)C[C@@H](Cc2ccccc2)C(=O)N[C@@H](Cc2c[nH]cn2)C(=O)N[C@@H](CC2CCCCC2)[C@@H](O)[C@@H](O)CCc2ccccn2)CC1
– | 0.16 nM | 0.14 nM | – | – | – | – | CN(CCN(C)C(=O)N1CCOCC1)C(=O)O[C@@H](Cc1ccccc1)C(=O)N[C@@H](Cc1c[nH]cn1)C(=O)N[C@@H](CC1CCCCC1)[C@@H](O)[C@@H](O)CCc1ccccn1
– | 0.13 nM | 0.79 nM | – | – | – | – | NC1CCN(C(=O)C[C@@H](Cc2cccc3ccccc23)C(=O)N[C@@H](Cc2cnc[nH]2)C(=O)N[C@@H](CC2CCCCC2)[C@@H](O)[C@@H](O)CCc2ccccn2)CC1
– | 0.68 nM | 1.3 nM | – | – | – | – | CCC[C@H](NC(=O)[C@@H](CC(=O)N1CCC(N)CC1)Cc1ccccc1)C(=O)N[C@@H](CC1CCCCC1)[C@@H](O)[C@@H](O)CCc1ccccn1

— ChEMBL document CHEMBL1127052, “Renin inhibitors containing a pyridyl amino diol derived C-terminus” (J Med Chem, 1993)
